Results taken from PubChem BioAssay (NCI).
Where “and” joins values, the source holds several entries; their conditions need not be identical. Identical values can stand only once.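 Compound exposure: 48 hours, 5 concentrations, 96-well plates. GI50 = concentration required for 50% inhibition of growth. At the TGI there is no net growth.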

Columns and labels:
Experiment in all cases: inhibition of tumour cell growth, NCI panel, 48 h
786-0 renal = system: 786-0 renal
A498 renal = system: A498 renal
DU-145 prostate = system: DU-145 prostate
HCT-116 colon = system: HCT-116 colon
HCT-15 colon = system: HCT-15 colon
HL-60(TB) leukemia = system: HL-60(TB) leukemia
HOP-92 NSCLC = system: HOP-92 NSCLC
HT29 colon = system: HT29 colon
MDA-N = system: MDA-N
NCI-H226 lung = system: NCI-H226 lung
NCI-H23 lung = system: NCI-H23 lung
PC-3 prostate = system: PC-3 prostate
SK-MEL-2 melanoma = system: SK-MEL-2 melanoma
SK-MEL-28 melanoma = system: SK-MEL-28 melanoma
SN12C renal = system: SN12C renal

SMILES	TGI (786-0 renal) [µM]	TGI (A498 renal)	TGI (DU-145 prostate)	TGI (HCT-116 colon) [µM]	TGI (HCT-15 colon) [µM]	TGI (HL-60(TB) leukemia)	TGI (HOP-92 NSCLC)	TGI (HT29 colon) [µM]	TGI (MDA-N) [µM]	TGI (NCI-H226 lung)	TGI (NCI-H23 lung) [µM]	TGI (PC-3 prostate)	TGI (SK-MEL-2 melanoma)	TGI (SK-MEL-28 melanoma) [µM]	TGI (SN12C renal) [µM]	GI50 (HL-60(TB) leukemia)	GI50 (PC-3 prostate)	GI50 (SK-MEL-2 melanoma)	GI50 (SK-MEL-28 melanoma)
COC(=O)/C(C#N)=C(/NCc1ccccc1)Nc1ccccc1	> 100	> 100 µM	> 100 µM	> 100	> 100	> 100 µM	> 100 µM	> 100	> 100	> 100 µM	> 100	> 100 µM	> 100 µM	> 100	> 100	–	–	–	–
CC[C@H]1C=CCC[C@@]2(C[C@@H]3CC[C@H]4[C@@H](C(=O)OCCCCCCCCCCCCCCCC(=O)N(CCCNC(C)=O)C[C@H](CCNC(C)=O)OC(C)=O)[C@@]5(CCC[C@@H](C)O5)NC(=[N+]34)N2)O1	3.4	3.27 µM	2.9 µM	2.92	3.17	2.91 µM	2.43 µM	2.7	3.05	2.94 µM	3.19	2.26 µM	3.31 µM	2.63	3.54	–	–	–	–
C=CCN1C(=O)/C(=C/c2ccc(OC)cc2)N=C1SC1OC(COC(C)=O)C(OC(C)=O)C(OC(C)=O)C1OC(C)=O (configuration not stated)	> 100	> 100 µM and 86.2 µM	39.2 µM and > 100 µM	> 100	> 100	> 94 µM and 15.4 µM	46.4 µM and 59.4 µM	22.4	> 100	55.5 µM and > 100 µM	> 100	37.1 µM and > 100 µM	54.8 µM and > 100 µM	> 100	89.4	11.5 µM and 2.9 µM	16.9 µM and 52.6 µM	21.1 µM and 51.7 µM	24.6 µM and > 100 µM
N#CCCN(CCCN(C(=O)Nc1ccc(NC(=O)N(CCCN(CCC#N)C(N)=O)c2ccccc2)cc1)c1ccccc1)C(N)=O	> 100	> 100 µM	> 100 µM	> 100	> 100	> 100 µM	> 100 µM	> 100	> 100	> 100 µM	> 100	> 100 µM	> 100 µM	> 100	–	–	–	–	–
Cc1ccc2nc(-c3ccc(-c4nc5ccc(C)cc5o4)c(O)c3)oc2c1	> 100	> 100 µM	> 100 µM	> 100	> 100	> 100 µM	> 100 µM	–	> 100	> 100 µM	> 100	> 100 µM	> 100 µM	> 100	> 100	–	–	–	–
CC(C(=O)O)C1Nc2ccccc2NC1=O (configuration not stated)	> 100	> 100 µM	> 100 µM	> 100	> 100	> 100 µM	> 100 µM	> 100	> 100	> 100 µM	> 100	> 100 µM	> 100 µM	> 100	–	–	–	–	–
Oc1ccccc1-c1n[nH]c(-c2ccccc2O)n1	> 100	> 100 µM	> 100 µM	> 100	> 33.6	> 23.7 µM	–	> 100	> 100	> 100 µM	–	4.72 µM	> 100 µM	> 100	> 100	–	–	–	–
C=C1C(=O)OC2/C=C(\C)CC/C=C(\C)CC(OC(=O)/C(=C/CO)CO)[C@@H]12 (some centres not stated)	11.5	34.6 µM	42.3 µM	10.7	29.7	12.6 µM	13.5 µM	20.6	20.2	> 80.4 µM	29.4	31.8 µM	34.6 µM	31.2	27.2	–	–	–	–
CC(C)(C)OC(=O)NCC(=O)N(CCc1ccc(Cl)c(Cl)c1)CCN1CCCC1	28	32.8 µM	32.3 µM	27.9	37.4	30.4 µM	19.4 µM	23.7	29.1	32.3 µM	37.1	30.3 µM	31.3 µM	29.7	32.7	–	–	–	–
O=C1CC2(CCNCC2)C(=O)N1N1CCCCC1	> 100	> 100 µM	> 100 µM	> 100	> 100	> 100 µM	> 100 µM	> 100	> 100	> 100 µM	> 100	> 100 µM	> 100 µM	> 100	> 100	–	–	–	–
[O-]/[N+](=N/c1ncc(-c2ccccc2)cn1)c1ncc(-c2ccccc2)cn1	> 100	> 100 µM	> 100 µM	> 100	> 100	> 100 µM	> 100 µM	> 100	> 100	> 100 µM	> 100	> 100 µM	> 100 µM	> 100	> 100	–	–	–	–
COc1cccc(N2C(=O)C3c4[nH]c5ccc(C)cc5c4C4CCC(C)CC4C3C2=O)c1 (configuration not stated)	> 100	> 100 µM	> 100 µM	> 100	> 100	25.3 µM	> 100 µM	> 100	> 100	> 100 µM	> 100	> 100 µM	> 100 µM	> 100	> 100	–	–	–	–
CN(C)c1cccc(/C=C(\C#N)c2ccccc2)c1	> 60.9	35.4 µM	33.5 µM	57.5	> 58.4	1.34 µM	39.1 µM	2.57	0.161	24.6 µM	45	> 100 µM	47.5 µM	> 100	> 100	–	–	–	–
CC(C)N(C(=O)C12C3(C(=O)C(C)(C)C)C4C5(C#N)C3C1(C(=O)C(C)(C)C)C5C42C(=O)C(C)(C)C)C(C)C (configuration not stated)	> 100	> 100 µM	> 100 µM	> 100	> 100	> 100 µM	> 100 µM	> 100	> 100	–	> 100	> 100 µM	> 100 µM	> 100	> 100	–	–	–	–
O=C1Nc2ccccc2/C1=N/N1C(=O)/C(=C/c2ccccc2S)N=C1c1ccccc1	> 100	> 100 µM	> 100 µM	> 100	> 100	> 100 µM	> 100 µM	> 100	> 100	–	> 100	> 100 µM	> 100 µM	> 100	> 100	–	–	–	–
